Assay results as given in US10975055B2, “Inhibitors of interleukin-1 receptor-associated kinases and uses thereof” (Dana-Farber Cancer Institute, Inc., priority 2016, dated 2021).
pIC50: −log10 of the molar value. Read-outs that look alike come from different tables or passages of the source.

Assays:
IRAK1 = IRAK1 (Homo sapiens, UniProt P51617); test: IRAK1 Alexa kinase assay (TR-FRET, ADP tracer); type: biochemical
Procedure: (§1) Select compounds described herein were evaluated for structure-activity analyses. For IRAK1, the following Alexa kinase assay procedure was followed: in the absence of an inhibitor, ADP formed by a kinase reaction will displace an Alexa Fluor 647 dye-labeled ADP tracer from an Eu3+-labeled anti-ADP antibody, resulting in a decrease in the time-resolved fluorescence resonance energy transfer (TR-FRET) signal. In the presence of an inhibitor, the amount of ADP formed by the kinase reaction is reduced, and the resulting intact antibody-tracer interaction produces a high TR-FRET signal. For IRAK4, the following Z-lyte kinase assay procedure was followed: phosphorylation-dependent protease susceptibility of a double-labeled peptide substrate is detected using fluorescence resonance energy transfer (FRET).

IRAK4 = molecular target: T1, IRAK4 (Homo sapiens, UniProt Q9NWZ3); test: IRAK4 Z-lyte kinase assay (FRET peptide substrate); type: biochemical
T1 sequence (Q9NWZ3 1-460): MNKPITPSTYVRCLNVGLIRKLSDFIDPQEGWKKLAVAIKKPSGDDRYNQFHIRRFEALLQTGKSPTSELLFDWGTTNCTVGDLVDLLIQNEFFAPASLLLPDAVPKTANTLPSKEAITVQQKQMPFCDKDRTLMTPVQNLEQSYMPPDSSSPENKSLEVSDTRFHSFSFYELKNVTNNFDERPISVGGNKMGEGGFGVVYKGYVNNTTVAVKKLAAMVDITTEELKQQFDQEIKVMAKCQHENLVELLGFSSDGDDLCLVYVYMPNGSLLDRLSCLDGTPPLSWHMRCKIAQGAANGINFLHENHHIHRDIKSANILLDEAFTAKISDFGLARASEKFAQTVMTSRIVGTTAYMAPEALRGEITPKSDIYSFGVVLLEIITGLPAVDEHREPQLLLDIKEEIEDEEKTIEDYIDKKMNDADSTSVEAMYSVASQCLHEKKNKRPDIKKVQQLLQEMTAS
Procedure: as §1

[1] = test system: MYD88 mutated WM and ABC-DLBCL cells; test: Synergism evaluation with Ibrutinib: tumor cell killing; type: cell-based; conditions: for Combination Index (CI): synergism evaluation with Ibrutinib
[2] = test system: kinome (off-targets YSK4 and MEK3); test: Kinome selectivity (kinome tree); type: biochemical
IRAK1 cysteine 302 = IRAK1 cysteine 302 (Homo sapiens, UniProt P51617); test: Mass spec labelling studies; type: binding
Chain of IRAK1 cysteine 302 (P51617 whole entry): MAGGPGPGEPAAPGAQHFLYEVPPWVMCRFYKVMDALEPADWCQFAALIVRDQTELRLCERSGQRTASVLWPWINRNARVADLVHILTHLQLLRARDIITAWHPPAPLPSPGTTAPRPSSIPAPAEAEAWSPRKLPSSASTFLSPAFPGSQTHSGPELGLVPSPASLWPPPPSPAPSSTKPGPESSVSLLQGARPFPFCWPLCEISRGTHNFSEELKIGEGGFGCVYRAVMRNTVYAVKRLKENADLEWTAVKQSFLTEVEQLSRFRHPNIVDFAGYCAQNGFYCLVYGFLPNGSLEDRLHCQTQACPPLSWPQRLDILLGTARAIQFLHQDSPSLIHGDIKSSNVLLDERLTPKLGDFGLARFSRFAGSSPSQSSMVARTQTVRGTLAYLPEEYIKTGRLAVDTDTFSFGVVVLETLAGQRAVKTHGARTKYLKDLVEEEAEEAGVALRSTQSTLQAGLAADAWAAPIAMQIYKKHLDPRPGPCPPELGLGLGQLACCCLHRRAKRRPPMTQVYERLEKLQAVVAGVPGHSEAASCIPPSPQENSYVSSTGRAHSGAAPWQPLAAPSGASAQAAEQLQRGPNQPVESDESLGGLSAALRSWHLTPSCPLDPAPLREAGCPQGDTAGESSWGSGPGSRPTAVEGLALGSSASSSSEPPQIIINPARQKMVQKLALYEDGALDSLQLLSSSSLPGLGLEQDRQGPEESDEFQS

[3] = test system: MYD88 mutated WM and ABC DLBCL cells; test: Antiproliferative effects, single agent; type: cell-based
[4] = test system: Waldenstrom's, DLBCL, and Burkitt Lymphoma cell lines; test: Cellular data for covalent IRAK1 inhibitors: cell killing; type: cell-based
NF-κB activation = NF-κB activation under combination with Ibrutinib; type: cell-based
In vivo PK studies = conditions: dosed IV
[5] = test system: WM patients' bone marrow LPCs; test: Tumor cell killing in WM patients' bone marrow LPCs; type: cell-based, human; conditions: combination with BTK inhibitor Ibrutinib

Chain of IRAK1 (P51617 whole entry): as above

pIC50 (IRAK1; Table 1, read-out: IC50 IRAK1)	pIC50 (IRAK4; Table 1, read-out: IC50 IRAK4)	pIC50 (IRAK1; read-out: IRAK1 IC50)	pIC50 (IRAK4; read-out: IRAK4 IC50)	Molecule	further results
7.60	< 5.00			C=CC(=O)Nc1cccc(C(=O)Nc2cccc(NC(=O)c3cccc(-c4ccn[nH]4)n3)c2)c1 [JH-X-119-04]	
	< 5.00	7.17	< 5.00	C=CC(=O)Nc1cccc(C(=O)Nc2ccc(NC(=O)c3cccc(-c4cnn(C)c4)n3)cc2)c1 [JH-XIII-80-2, N-(4-(3-acrylamidobenzamido)phenyl)-6-(1-methyl-1H-pyrazol-4-yl)picolinamide]	
7.29	< 5.00			CN(C)C/C=C/C(=O)Nc1cccc(C(=O)Nc2ccc(NC(=O)c3cccc(-c4ccn[nH]4)n3)cc2)c1 [JH-X-198]	Combination Index (CI) [1]: < 1.0
		7.06	5.95	C=CC(=O)N[C@H]1CC[C@H](C(=O)Nc2ccc(NC(=O)c3cccc(-c4ccn[nH]4)n3)cc2)CC1 [JH-XII-205-1, N-(4-((1r,4r)-4-acrylamidocyclohexane-1-carboxamido)phenyl)-6-(1H-pyrazol-5-yl)picolinamide]	
	< 5.00	7.92	< 5.00	C=CC(=O)Nc1cccc(C(=O)Nc2ccc(NC(=O)c3cccc(-c4cnoc4)n3)cc2)c1 [JH-XIII-80-1, N-(4-(3-acrylamidobenzamido)phenyl)-6-(isoxazol-4-yl)picolinamide]	
	< 5.00	8.03		C=CC(=O)Nc1cccc(C(=O)Nc2ccc(NC(=O)c3cccc(-c4ccn[nH]4)n3)cc2)c1 [JH-X-119-01]	inhibition of IRAK4 (IRAK4; at concentrations up to 10 μM): no inhibition; kinome selectivity: off-target inhibition [2]: only two kinases, YSK4 and MEK3; labelling of IRAK1 (mass spec) (IRAK1 cysteine 302): irreversibly labelled IRAK1 at cysteine 302; antiproliferative effects [3]: antiproliferative effects; cell killing ED50 [4]: micromolar; tumor cell killing, combination with Ibrutinib ([1]; combination with Ibrutinib, MYD88 mutated WM and ABC-DLBCL cells): synergistic tumor cell killing; Combination Index (CI) [1]: < 1.0; NF-κB activation, combination with Ibrutinib (NF-κB activation): suppression; Cmax (In vivo PK studies): 9.95 µM; clearance (In vivo PK studies): 18.8 mL/min/kg; half-life (In vivo PK studies): 1.61 h; tumor cells killing in WM patients' bone marrow LPCs [5]: more robust tumor cells killing
	< 5.00	7.14	< 5.00	C=CC(=O)N[C@H]1CCC[C@@H](C(=O)Nc2ccc(NC(=O)c3cccc(-c4ccn[nH]4)n3)cc2)C1 [JH-XII-205-2, N-(4-((1R,3S)-3-acrylamidocyclohexane-1-carboxamido)phenyl)-6-(1H-pyrazol-5-yl)picolinamide]	
7.33	< 5.00			C=CC(=O)Nc1ccc(C(=O)Nc2ccc(NC(=O)c3cccc(-c4ccn[nH]4)n3)cc2)cc1 [JH-X-119-02]	
	< 5.00	7.40	< 5.00	C=CC(=O)Nc1cccc(-c2cn(-c3ccc(NC(=O)c4cccc(-c5ccn[nH]5)n4)cc3)nn2)c1 [JH-XIII-96-2, N-(4-(4-(3-acrylamidophenyl)-1H-1,2,3-triazol-1-yl)phenyl)-6-(1H-pyrazol-5-yl)picolinamide]	
6.59	< 5.00			CCC(=O)Nc1cccc(C(=O)Nc2ccc(NC(=O)c3cccc(-c4ccn[nH]4)n3)cc2)c1 [JH-X-159]	
		7.29	6.22	C=CC(=O)NC12CC(NC(=O)c3ccc(NC(=O)c4cccc(-c5ccn[nH]5)n4)cc3)(C1)C2 [JH-XII-200-3, N-(4-((3-acrylamidobicyclo[1.1.1]pentan-1-yl)carbamoyl)phenyl)-6-(1H-pyrazol-5-yl)picolinamide]	
		7.62	6.19	C=CC(=O)N[C@H]1CCC[C@@H](NC(=O)c2ccc(NC(=O)c3cccc(-c4ccn[nH]4)n3)cc2)C1 [JH-XII-200-2, N-(4-(((1R,3S)-3-acrylamidocyclohexyl)carbamoyl)phenyl)-6-(1H-pyrazol-5-yl)picolinamide]	
	< 5.00	7.66	< 5.00	C=CC(=O)Nc1cccc(C(=O)Nc2ccc(NC(=O)c3cccc(-c4cn[nH]c4)n3)cc2)c1 [JH-XIII-80-3, N-(4-(3-acrylamidobenzamido)phenyl)-6-(1H-pyrazol-4-yl)picolinamide]	
		7.34	6.81	C=CC(=O)N[C@H]1CC[C@H](NC(=O)c2ccc(NC(=O)c3cccc(-c4ccn[nH]4)n3)cc2)CC1 [JH-XII-200-1, N-(4-(((1r,4r)-4-acrylamidocyclohexyl)carbamoyl)phenyl)-6-(1H-pyrazol-5-yl)picolinamide]	
7.26				C=CC(=O)Nc1ccc(C(=O)Nc2cccc(NC(=O)c3cccc(-c4ccn[nH]4)n3)c2)cc1 [JH-X-119-03]	

Molecule	pIC50 (IRAK1; Table 1, read-out: IC50 IRAK1)	pIC50 (IRAK4; Table 1, read-out: IC50 IRAK4)	pIC50 (IRAK1; read-out: IRAK1 IC50)	pIC50 (IRAK4; read-out: IRAK4 IC50)	further results
N-(4-(4-acrylamidobenzamido)phenyl)-[2,3′-bipyridine]-6-carboxamide [JH-XIII-77]		< 5.00	7.10	< 5.00	
